Results taken from ChEMBL document CHEMBL4364293, “Design, Synthesis, and Structure-Activity Relationship of 7-Propanamide Benzoxaboroles as Potent Anticancer Agents” (J Med Chem, 2019).
Active and inactive are the calls of the source. The rule behind the calls is not given here.

How the values were obtained:
[1] = Selectivity ratio, ratio of IC50 for human WI38 cells to IC50 for human SKOV3 cells; type: toxicity; settings: WI38 cells versus SKOV3 cells, read-out: Ratio IC50
[2] = system: WI-38; experiment: Cytotoxicity against human WI38 cells after 72 hrs by MTT assay; type: cell-based; settings: WI-38, 72 h
[3] = system: SK-OV-3; experiment: Antiproliferative activity against human SKOV3 cells after 72 hrs by MTT assay; type: functional, cell-based; settings: SK-OV-3, 72 h
[4] = system: HCT-116; experiment: Antiproliferative activity against human HCT116 cells after 72 hrs by MTT assay; type: functional, cell-based; settings: HCT-116, 72 h
[5] = system: MDA-MB-231; experiment: Antiproliferative activity against human MDA-MB-231 cells after 72 hrs by MTT assay; type: functional, cell-based; settings: MDA-MB-231, 72 h
[6] = Half-life in Sprague-Dawley rat at 2 mg/kg, iv by non-compartmental analysis; type: ADME, organism-based; settings: in vivo
[7] = system: SW480; experiment: Antitumor activity against human SW480 cells xenografted in ip dosed BALB/c mouse assessed as reduction in tumor weight administered once daily for 33 days and measured every 3 days during compound dosing; type: functional, organism-based
[8] = AUC infinity in Sprague-Dawley rat at 2 mg/kg, iv by non-compartmental analysis; type: ADME, organism-based; design: dose 2 mg/kg, time infinity, route intravenous; settings: in vivo
[9] = Volume of distribution at steady state in Sprague-Dawley rat at 2 mg/kg, iv by non-compartmental analysis; type: ADME, organism-based; settings: in vivo, read-out: Vdss
[10] = Apparent permeability across basolateral to apical side in human Caco2 cells; type: ADME, cell-based; settings: Caco-2
[11] = Half-life in Sprague-Dawley rat at 10 mg/kg, po by non-compartmental analysis; type: ADME, organism-based; settings: in vivo
[12] = Tmax in Sprague-Dawley rat at 10 mg/kg, po by non-compartmental analysis; type: ADME, organism-based; settings: in vivo
[13] = AUC infinity in Sprague-Dawley rat at 10 mg/kg, po by non-compartmental analysis; type: ADME, organism-based; design: dose 10 mg/kg, time infinity, route oral; settings: in vivo
[14] = Toxicity in BALB/c mouse xenografted with human SW480 cells assessed as reduction in body weight at 2 to 10 mg/kg, ip administered once daily for 33 days and measured every 3 days during compound dosing; type: organism-based; settings: in vivo
[15] = Clearance in Sprague-Dawley rat at 2 mg/kg, iv by non-compartmental analysis; type: ADME, organism-based; settings: in vivo
[16] = Oral bioavailability in Sprague-Dawley rat at 10 mg/kg by non-compartmental analysis; type: ADME, organism-based; settings: in vivo
[17] = Apparent permeability across apical to basolateral side in human Caco2 cells; type: ADME, cell-based; settings: Caco-2
[18] = molecular target: Leucine--tRNA ligase, cytoplasmic (Homo sapiens) (UniProt Q9P2J5); experiment: Inhibition of human leucyl-tRNA synthetase
Chain of Leucine--tRNA ligase, cytoplasmic (Homo sapiens) (Q9P2J5 whole entry, looked up): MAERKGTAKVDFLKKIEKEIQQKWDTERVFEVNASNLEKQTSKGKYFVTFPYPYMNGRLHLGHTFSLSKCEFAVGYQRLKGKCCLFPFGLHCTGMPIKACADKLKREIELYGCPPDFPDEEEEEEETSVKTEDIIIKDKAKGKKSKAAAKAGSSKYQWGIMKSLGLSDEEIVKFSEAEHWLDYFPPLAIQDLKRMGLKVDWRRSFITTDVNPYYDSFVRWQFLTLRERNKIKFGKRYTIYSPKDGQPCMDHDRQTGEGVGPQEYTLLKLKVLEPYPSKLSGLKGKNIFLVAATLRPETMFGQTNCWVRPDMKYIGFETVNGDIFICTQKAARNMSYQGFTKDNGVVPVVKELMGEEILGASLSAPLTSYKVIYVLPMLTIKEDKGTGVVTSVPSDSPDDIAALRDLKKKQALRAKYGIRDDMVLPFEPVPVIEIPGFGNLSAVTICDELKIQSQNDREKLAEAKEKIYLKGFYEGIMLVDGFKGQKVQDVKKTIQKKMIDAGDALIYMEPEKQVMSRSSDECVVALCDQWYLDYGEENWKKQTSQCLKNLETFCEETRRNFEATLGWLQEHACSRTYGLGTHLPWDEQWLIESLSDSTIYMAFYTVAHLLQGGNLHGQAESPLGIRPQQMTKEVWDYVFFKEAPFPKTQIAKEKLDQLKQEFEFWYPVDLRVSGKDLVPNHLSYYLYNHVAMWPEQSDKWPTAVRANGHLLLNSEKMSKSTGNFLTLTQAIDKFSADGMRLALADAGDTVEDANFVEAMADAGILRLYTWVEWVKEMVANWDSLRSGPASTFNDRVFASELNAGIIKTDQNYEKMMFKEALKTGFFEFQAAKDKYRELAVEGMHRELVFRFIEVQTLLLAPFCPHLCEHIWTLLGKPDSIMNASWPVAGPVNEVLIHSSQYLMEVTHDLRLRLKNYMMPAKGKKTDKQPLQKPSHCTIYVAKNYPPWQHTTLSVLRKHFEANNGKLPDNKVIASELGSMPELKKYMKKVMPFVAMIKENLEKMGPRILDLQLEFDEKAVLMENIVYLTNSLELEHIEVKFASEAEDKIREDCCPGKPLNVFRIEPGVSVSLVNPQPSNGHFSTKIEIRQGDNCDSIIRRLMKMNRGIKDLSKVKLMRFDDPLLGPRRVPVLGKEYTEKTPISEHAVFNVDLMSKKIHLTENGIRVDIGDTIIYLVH

[19] = Cmax in Sprague-Dawley rat at 10 mg/kg, po by non-compartmental analysis; type: ADME, organism-based; design: dose 10 mg/kg, route oral; settings: in vivo
[20] = system: SW480; experiment: Antitumor activity against human SW480 cells xenografted in ip dosed BALB/c mouse assessed as reduction in tumor volume administered once daily for 33 days and measured every 3 days during compound dosing; type: functional, organism-based
[21] = Efflux ratio of apparent permeability from basolateral to apical over apical to basolateral side in human Caco2 cells; type: ADME, cell-based; settings: Caco-2
[22] = system: SK-OV-3; experiment: Induction of apoptosis in human SKOV3 cells assessed as early apoptotic cells at 10 uM after 48 hrs by Annexin V-FITC/propidium iodide staining based FACS analysis (reference value: 1.95%); type: functional
[23] = system: NCI-H460; experiment: Induction of apoptosis in human NCI-H460 cells assessed as increase in cleaved caspase-3 expression at low concentration after 48 hrs by Western blot analysis; type: functional, cell-based
[24] = system: SK-OV-3; experiment: Induction of apoptosis in human SKOV3 cells assessed as necrotic cells at 10 uM after 48 hrs by Annexin V-FITC/propidium iodide staining based FACS analysis (reference value: 1.06%); type: functional
[25] = system: NCI-H460; experiment: Induction of apoptosis in human NCI-H460 cells assessed as increase in cleaved PARP expression at low concentration after 48 hrs by Western blot analysis; type: functional, cell-based
[26] = system: SK-OV-3; experiment: Induction of apoptosis in human SKOV3 cells assessed as necrotic cells at 3 uM after 48 hrs by Annexin V-FITC/propidium iodide staining based FACS analysis (reference value: 1.06%); type: functional
[27] = system: SK-OV-3; experiment: Induction of apoptosis in human SKOV3 cells assessed as late apoptotic cells at 10 uM after 48 hrs by Annexin V-FITC/propidium iodide staining based FACS analysis (reference value: 5.97%); type: functional
[28] = system: SK-OV-3; experiment: Induction of apoptosis in human SKOV3 cells assessed as late apoptotic cells at 3 uM after 48 hrs by Annexin V-FITC/propidium iodide staining based FACS analysis (reference value: 5.97%); type: functional
[29] = system: SK-OV-3; experiment: Induction of apoptosis in human SKOV3 cells assessed as necrotic cells at 1 uM after 48 hrs by Annexin V-FITC/propidium iodide staining based FACS analysis (reference value: 1.06%); type: functional
[30] = system: NCI-H460; experiment: Induction of apoptosis in human NCI-H460 cells assessed as increase in cleaved caspase-9 expression at low concentration after 48 hrs by Western blot analysis; type: functional, cell-based
[31] = system: SK-OV-3; experiment: Induction of apoptosis in human SKOV3 cells assessed as viable cells at 10 uM after 48 hrs by Annexin V-FITC/propidium iodide staining based FACS analysis (reference value: 91%); type: functional; settings: SK-OV-3, 48 h, read-out: Activity
[32] = system: SK-OV-3; experiment: Induction of apoptosis in human SKOV3 cells assessed as early apoptotic cells at 3 uM after 48 hrs by Annexin V-FITC/propidium iodide staining based FACS analysis (reference value: 1.95%); type: functional
[33] = system: SK-OV-3; experiment: Induction of apoptosis in human SKOV3 cells assessed as viable cells at 1 uM after 48 hrs by Annexin V-FITC/propidium iodide staining based FACS analysis (reference value: 91%); type: functional; settings: SK-OV-3, 48 h, read-out: Activity
[34] = system: SK-OV-3; experiment: Induction of apoptosis in human SKOV3 cells assessed as early apoptotic cells at 1 uM after 48 hrs by Annexin V-FITC/propidium iodide staining based FACS analysis (reference value: 1.95%); type: functional
[35] = system: SK-OV-3; experiment: Induction of apoptosis in human SKOV3 cells assessed as late apoptotic cells at 1 uM after 48 hrs by Annexin V-FITC/propidium iodide staining based FACS analysis (reference value: 5.97%); type: functional
[36] = system: SK-OV-3; experiment: Inhibition of colony formation in human SKOV3 cells at 0.0625 to 1 uM supplemented with fresh medium containing compound every 72 hrs for 2 weeks by crystal violet staining based assay; type: functional, cell-based
[37] = system: SK-OV-3; experiment: Induction of apoptosis in human SKOV3 cells after 48 hrs by Annexin V-FITC/propidium iodide staining based FACS analysis (reference value: 1.06%); type: functional, cell-based
[38] = system: SK-OV-3; experiment: Induction of apoptosis in human SKOV3 cells assessed as viable cells at 3 uM after 48 hrs by Annexin V-FITC/propidium iodide staining based FACS analysis (reference value: 91%); type: functional; settings: SK-OV-3, 48 h, read-out: Activity

## O=C(CCc1cccc2c1B(O)OC2)Nc1ccccc1
[1]
  selectivity ratio: 150
[2]
  IC50: 30000 nM
[3]
  IC50: 200 nM
[4]
  IC50: 350 nM
[5]
  IC50: 230 nM

## O=C(CCc1cccc2c1B(O)OC2)Nc1cccc(-c2ccc(F)cc2)c1
[1]
  selectivity ratio: 44
[2]
  IC50: 4100 nM
[3]
  IC50: 93 nM
[4]
  IC50: 550 nM
[5]
  IC50: 250 nM

## CC(=O)c1ccc(-c2cccc(NC(=O)CCc3cccc4c3B(O)OC4)c2)cc1
[6]
  half-life: 0.6 h
[7]
  Activity: Dose-dependent effect
[8]
  AUC(0-inf): 1920 ng·h/mL
[9]
  Vd: 0.882 L/kg
[10]
  Papp B→A: 2.23 ×10⁻⁶ cm/s
[11]
  half-life: 2 h
[12]
  Tmax: 0.25 h
[13]
  AUC(0-inf): 459 ng·h/mL
[14]
  Activity: Non-Toxic
[1]
  selectivity ratio: 180
[2]
  IC50: 3700 nM
[3]
  IC50: 21 nM
[15]
  clearance: 17.5 mL/min/kg
[4]
  IC50: 110 nM
[16]
  bioavailability: 4.6%
[17]
  Papp A→B: 3.95 ×10⁻⁶ cm/s
[18]
  inhibition: inactive
[5]
  IC50: 56 nM
[19]
  Cmax: 373 ng/mL
[20]
  Activity: Dose-dependent effect
[21]
  efflux ratio: 0.56

## COc1cccc(-c2cccc(NC(=O)CCc3cccc4c3B(O)OC4)c2)c1
[6]
  half-life: 1.4 h
[7]
  Activity: Dose-dependent effect
[8]
  AUC(0-inf): 551 ng·h/mL
[22]
  Activity: 20.6%
[9]
  Vd: 7.63 L/kg
[23]
  Activity: Active
[10]
  Papp B→A: 26.5 ×10⁻⁶ cm/s
[24]
  Activity: 0.505%
[11]
  half-life: 2.2 h
[12]
  Tmax: 0.2 h
[13]
  AUC(0-inf): 547 ng·h/mL
[14]
  Activity: Non-Toxic
[25]
  Activity: Active
[1]
  selectivity ratio: 100
[26]
  Activity: 0.593%
[27]
  Activity: 30.7%
[2]
  IC50: 3200 nM
[28]
  Activity: 17.1%
[29]
  Activity: 0.808%
[30]
  Activity: Active
[3]
  IC50: 33 nM
[15]
  clearance: 62.5 mL/min/kg
[4]
  IC50: 260 nM
[31]
  viability at 10 µM: 48.1%
[16]
  bioavailability: 19.5%
[17]
  Papp A→B: 19.5 ×10⁻⁶ cm/s
[18]
  inhibition: inactive
[32]
  Activity: 14.5%
[5]
  IC50: 37 nM
[19]
  Cmax: 434 ng/mL
[33]
  viability at 1 µM: 71%
[34]
  Activity: 12.8%
[35]
  Activity: 15.4%
[20]
  Activity: Dose-dependent effect
[36]
  inhibition: Active
[37]
  Activity: Dose-dependent effect
[21]
  efflux ratio: 1.36
[38]
  viability at 3 µM: 67.8%

## O=C(CCc1cccc2c1B(O)OC2)Nc1cccc(-c2ccc(OC(F)(F)F)cc2)c1
[2]
  IC50: 25000 nM
[3]
  IC50: 560 nM
[4]
  IC50: 730 nM
[5]
  IC50: 640 nM

## CCNC(=O)CCc1cccc2c1B(O)OC2
[2]
  IC50: > 100000 nM
[3]
  IC50: > 100000 nM
[4]
  IC50: > 100000 nM
[5]
  IC50: > 100000 nM

## COc1ccc(-c2cccc(NC(=O)CCc3cccc4c3B(O)OC4)c2)cc1
[2]
  IC50: 1400 nM
[3]
  IC50: 48 nM
[4]
  IC50: 160 nM
[5]
  IC50: 88 nM

## O=C(CCc1cccc2c1B(O)OC2)Nc1ccc(-c2ccccc2)cc1
[2]
  IC50: 32000 nM
[3]
  IC50: 48000 nM
[4]
  IC50: 13000 nM
[5]
  IC50: 8800 nM

## COc1cc(OC)cc(-c2cccc(NC(=O)CCc3cccc4c3COB4O)c2)c1
[2]
  IC50: > 100000 nM
[3]
  IC50: 88000 nM
[4]
  IC50: 50000 nM
[5]
  IC50: 93000 nM

## CC(C)(C)OC(=O)NCc1ccc(NC(=O)CCc2cccc3c2B(O)OC3)cc1
[2]
  IC50: 4800 nM
[3]
  IC50: 2000 nM
[4]
  IC50: 2300 nM
[5]
  IC50: 1300 nM
